Six compounds from patent US6645970B2, “Indolylmaleimide derivatives” (Novartis AG, priority 2000, dated 2003) can be followed below.

The target of one experiment is T1, Human recombinant PKCη (Homo sapiens, UniProt P24723).
T1 construct: purchased PanVera
Nature of the experiment: Protein Kinase Cη Assay. The class given is biochemical. To be noted: 10 μM ATP. The protocol:
(§1) The compounds of formula I are tested for their activity on different PKC isoforms according to a published method (D. Geiges et al. Biochem. Pharmacol. 1997;53:865-875) The assay is performed in a 96-well polypropylene microtiterplate (Costar 3794) that has been previously siliconized with Sigmacote (Sigma SL-2). The reaction mixture (50 μl) contains 10 μl the relevant PKC isozyme together with 25 μl of the test compound and 15 μl of a mix solution that contains 200 μg/ml protamine sulfate, 10 mM Mg(NO3)2, 10 μM ATP (Boehringer 519987) and 3750 Bq of ^33P-ATP (Hartmann Analytic SFC301, 110TBq/mmol) in 20 mM Tris-buffer pH 7.4+0.1% BSA. Incubation is performed for 15 min at 32° C. in a microtiterplate shaking incubator (Biolabo Scientific Instruments). Reaction is stopped by adding 10 μl of 0.5 M Na2EDTA, pH 7.4. 50 μl of mixture are pipetted onto a pre-wetted phosphocellulose paper (Whatmann 3698-915) under gentle pressure. Non-incorporated ATP is washed away with 100 μl bi-dist H2O. The paper is washed twice in 0.5% H3PO4 for 15 min followed by 5 min in EtOH. Thereafter the paper is dryed and placed in an omnifilter (Packard 6005219), and overlayed with 10 μl/well of Microscint-O (Packard 6013611) before counting in a Topcount radioactivity counter (Packard). […] IC50 value are calculated from the graph by sigmoidal curve fitting. […]

A further experiment concerns the target T2, Human recombinant PKCε (Homo sapiens, UniProt Q02156).
T2 construct: purchased Oxford Biomedical Research
T2 sequence (Q02156 1-737): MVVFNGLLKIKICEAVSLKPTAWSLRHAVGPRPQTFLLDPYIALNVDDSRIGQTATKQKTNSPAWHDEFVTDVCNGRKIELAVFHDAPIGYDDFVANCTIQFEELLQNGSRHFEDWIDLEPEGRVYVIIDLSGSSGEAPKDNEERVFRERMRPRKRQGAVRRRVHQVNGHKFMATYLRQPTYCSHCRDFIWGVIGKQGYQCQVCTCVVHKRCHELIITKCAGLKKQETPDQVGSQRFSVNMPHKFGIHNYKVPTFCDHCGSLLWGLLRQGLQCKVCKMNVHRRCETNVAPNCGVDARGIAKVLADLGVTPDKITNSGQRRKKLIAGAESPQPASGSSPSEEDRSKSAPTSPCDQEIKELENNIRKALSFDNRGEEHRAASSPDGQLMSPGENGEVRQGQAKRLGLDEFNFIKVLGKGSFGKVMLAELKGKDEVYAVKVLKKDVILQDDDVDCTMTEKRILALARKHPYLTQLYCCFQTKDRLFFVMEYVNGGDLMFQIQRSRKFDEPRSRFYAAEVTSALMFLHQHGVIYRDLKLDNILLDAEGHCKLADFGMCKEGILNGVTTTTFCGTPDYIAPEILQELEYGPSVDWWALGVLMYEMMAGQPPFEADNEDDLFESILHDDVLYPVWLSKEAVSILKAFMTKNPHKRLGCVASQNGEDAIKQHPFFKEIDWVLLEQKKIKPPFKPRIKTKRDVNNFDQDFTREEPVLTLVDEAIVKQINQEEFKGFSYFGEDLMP
Nature of the experiment: Protein Kinase Cε Assay. Format: biochemical. To be noted: 10 μM ATP. As to the method: as §1

In experiment [1] the test system is Rat Heart transplantation (graft survival). Nature of the experiment: Rat Heart transplantation. To be noted: Lewis and BN strains, 30 mg/kg/day. The class given is in vivo. The protocol: The strain combination used: Male Lewis (RT^1 haplotype) and BN (RT^1 haplotype). The animals are anaesthetised using inhalational isofluorane. […] The aorta is ligated and divided distal to the first branch and the brachiocephalic trunk is divided at the first bifurcation. The left pulmonary artery is ligated and divided and the right side divided but left open. All other vessels are dissected free, ligated and divided and the donor heart is removed into iced saline.
The recipient is prepared by dissection and cross-clamping of the infra-renal abdominal aorta and vena cava. The graft is implanted with end-to-side anastomoses, using 10/0 monofilament suture, between the donor brachiocephalic trunk and the recipient aorta and the donor right pulmonary artery to the recipient vena cava. The clamps are removed, the graft tethered retroabdominally, the abdominal contents washed with warm saline and the animal is closed and allowed to recover under a heating lamp. Graft survival is monitored by daily palpation of the beating donor heart through the abdominal wall. Rejection is considered to be complete when heart beat stops. Increases of graft survival are obtained in animals treated with a compound of formula I administered orally at a daily dose of 1 to 30 mg/kg.

For the next experiment, the target named is T3, Human recombinant PKCα (Homo sapiens, UniProt P17252).
T3 construct: purchased Oxford Biomedical Research
Nature of the experiment: Protein Kinase Cα Assay. The class given is biochemical. To be noted: 10 μM ATP. The protocol:
The compounds of formula I are tested for their activity on different PKC isoforms according to a published method (D. Geiges et al. Biochem. Pharmacol. 1997;53:865-875) The assay is performed in a 96-well polypropylene microtiterplate (Costar 3794) that has been previously siliconized with Sigmacote (Sigma SL-2). The reaction mixture (50 μl) contains 10 μl the relevant PKC isozyme together with 25 μl of the test compound and 15 μl of a mix solution that contains 200 μg/ml protamine sulfate, 10 mM Mg(NO3)2, 10 μM ATP (Boehringer 519987) and 3750 Bq of ^33P-ATP (Hartmann Analytic SFC301, 110TBq/mmol) in 20 mM Tris-buffer pH 7.4+0.1% BSA. Incubation is performed for 15 min at 32° C. in a microtiterplate shaking incubator (Biolabo Scientific Instruments). Reaction is stopped by adding 10 μl of 0.5 M Na2EDTA, pH 7.4. 50 μl of mixture are pipetted onto a pre-wetted phosphocellulose paper (Whatmann 3698-915) under gentle pressure. Non-incorporated ATP is washed away with 100 μl bi-dist H2O. The paper is washed twice in 0.5% H3PO4 for 15 min followed by 5 min in EtOH. Thereafter the paper is dryed and placed in an omnifilter (Packard 6005219), and overlayed with 10 μl/well of Microscint-O (Packard 6013611) before counting in a Topcount radioactivity counter (Packard). […] IC50 value are calculated from the graph by sigmoidal curve fitting.

The next experiment addresses T4, Human recombinant PKCβ1 (Homo sapiens, UniProt P05771).
T4 construct: purchased Oxford Biomedical Research
Nature of the experiment: Protein Kinase Cβ1 Assay. The class given is biochemical. Conditions: human recombinant PKCβ1, 10 μM ATP. As to the method: as §1

The next experiment has as its target T5, Human recombinant PKCδ (Homo sapiens, UniProt Q05655).
T5 construct: purchased Oxford Biomedical Research
Nature of the experiment: Protein Kinase Cδ Assay. Conditions: 10 μM ATP. The class given is biochemical. The protocol:
as §1

Experiment [2] has as its system Jurkat cells transfected with a human interleukin-2 promoter/reporter gene construct. Nature of the experiment: CD28 costimulation assay. The class given is cell-based. To be noted: stimulated Jurkat cells, IL-2 promoter luciferase reporter, 5.5 hours. On the technique in general: In a reporter assay the amount or activity of a reporter protein is the signal.
In a further experiment the target is Human recombinant PKCθ (Homo sapiens, UniProt Q04759). Nature of the experiment: Protein Kinase C θ Assay. The class given is biochemical. Conditions: 10 μM ATP. An excerpt:
Human recombinant PKCθ is used under the assay conditions as described above.

Experiment [3] concerns spleen cells from CBA and BALB/c mice. Nature of the experiment: Allogeneic Mixed Lymphocyte Reaction (MLR). Conditions: Mus musculus, two-way MLR, 3H-thymidine incorporation. The class given is cell-based. The protocol:
The two-way MLR is performed according to standard procedures (J. Immunol. Methods, 1973, 2, 279 and Meo T. et al., Immunological Methods, New York, Academic Press, 1979, 227-39). Briefly, spleen cells from CBA and BALB/c mice (1.6×10^5 cells from each strain per well in flat bottom tissue culture microtiter plates, 3.2×10^5 in total) are incubated in RPMI medium containing 10% FCS, 100 U/ml penicillin, 100 μg/mI streptomycin (Gibco BRL, Basel, Switzerland), 50 μM 2-mercaptoethanol (Fluka, Buchs, Switzerland) and serially diluted compounds. Seven three-fold dilution steps in duplicates per test compound are performed. After four days of incubation 1 μCi ^3H-thymidine is added. Cells are harvested after an additional five-hour incubation period, and incorporated ^3H-thymidine is determined according to standard procedures. Background values (low control) of the MLR are the proliferation of BALB/c cells alone. Low controls are subtracted from all values. High controls without any sample are taken as 100% proliferation. Percent inhibition by the samples is calculated, and the concentrations required for 50% inhibition (IC50 values) are determined.

Each structure is given as a SMILES string.

T1 sequence (P24723 whole entry): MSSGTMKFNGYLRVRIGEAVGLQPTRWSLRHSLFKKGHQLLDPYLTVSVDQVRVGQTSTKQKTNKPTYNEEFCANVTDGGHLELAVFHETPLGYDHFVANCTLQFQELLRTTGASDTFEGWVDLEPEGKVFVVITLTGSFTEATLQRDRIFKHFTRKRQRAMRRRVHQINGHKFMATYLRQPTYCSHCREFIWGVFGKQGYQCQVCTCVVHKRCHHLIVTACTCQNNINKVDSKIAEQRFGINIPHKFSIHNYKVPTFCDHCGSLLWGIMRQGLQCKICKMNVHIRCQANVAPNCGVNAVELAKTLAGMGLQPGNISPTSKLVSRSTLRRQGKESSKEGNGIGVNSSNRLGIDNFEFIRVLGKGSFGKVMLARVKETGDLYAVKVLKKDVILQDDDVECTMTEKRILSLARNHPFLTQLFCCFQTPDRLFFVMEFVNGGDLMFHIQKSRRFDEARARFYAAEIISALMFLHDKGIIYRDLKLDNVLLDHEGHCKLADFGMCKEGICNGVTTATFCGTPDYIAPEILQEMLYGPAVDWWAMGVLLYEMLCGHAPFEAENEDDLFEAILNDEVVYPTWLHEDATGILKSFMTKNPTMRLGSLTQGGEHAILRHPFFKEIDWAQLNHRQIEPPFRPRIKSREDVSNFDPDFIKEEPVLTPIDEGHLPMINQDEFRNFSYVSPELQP
Human recombinant PKCθ, sequence (Q04759 whole entry): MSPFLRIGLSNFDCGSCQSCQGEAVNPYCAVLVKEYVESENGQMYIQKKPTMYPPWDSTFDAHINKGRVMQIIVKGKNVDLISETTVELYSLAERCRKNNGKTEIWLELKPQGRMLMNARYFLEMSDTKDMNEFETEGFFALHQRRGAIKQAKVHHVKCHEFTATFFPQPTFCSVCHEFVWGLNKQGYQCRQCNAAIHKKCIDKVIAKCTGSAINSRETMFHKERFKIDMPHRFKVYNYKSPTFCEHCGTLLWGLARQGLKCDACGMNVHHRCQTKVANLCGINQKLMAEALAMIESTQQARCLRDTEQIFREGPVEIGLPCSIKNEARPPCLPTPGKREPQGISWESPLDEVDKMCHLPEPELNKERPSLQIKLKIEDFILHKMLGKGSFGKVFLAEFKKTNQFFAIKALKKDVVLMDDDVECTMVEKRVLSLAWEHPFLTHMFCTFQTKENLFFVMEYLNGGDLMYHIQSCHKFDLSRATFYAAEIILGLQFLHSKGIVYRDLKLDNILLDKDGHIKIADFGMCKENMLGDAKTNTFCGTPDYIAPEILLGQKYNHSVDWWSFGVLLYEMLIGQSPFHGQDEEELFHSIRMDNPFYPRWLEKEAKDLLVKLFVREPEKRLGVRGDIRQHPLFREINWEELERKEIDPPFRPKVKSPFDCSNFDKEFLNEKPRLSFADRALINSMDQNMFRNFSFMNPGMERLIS
T4 sequence (P05771 whole entry): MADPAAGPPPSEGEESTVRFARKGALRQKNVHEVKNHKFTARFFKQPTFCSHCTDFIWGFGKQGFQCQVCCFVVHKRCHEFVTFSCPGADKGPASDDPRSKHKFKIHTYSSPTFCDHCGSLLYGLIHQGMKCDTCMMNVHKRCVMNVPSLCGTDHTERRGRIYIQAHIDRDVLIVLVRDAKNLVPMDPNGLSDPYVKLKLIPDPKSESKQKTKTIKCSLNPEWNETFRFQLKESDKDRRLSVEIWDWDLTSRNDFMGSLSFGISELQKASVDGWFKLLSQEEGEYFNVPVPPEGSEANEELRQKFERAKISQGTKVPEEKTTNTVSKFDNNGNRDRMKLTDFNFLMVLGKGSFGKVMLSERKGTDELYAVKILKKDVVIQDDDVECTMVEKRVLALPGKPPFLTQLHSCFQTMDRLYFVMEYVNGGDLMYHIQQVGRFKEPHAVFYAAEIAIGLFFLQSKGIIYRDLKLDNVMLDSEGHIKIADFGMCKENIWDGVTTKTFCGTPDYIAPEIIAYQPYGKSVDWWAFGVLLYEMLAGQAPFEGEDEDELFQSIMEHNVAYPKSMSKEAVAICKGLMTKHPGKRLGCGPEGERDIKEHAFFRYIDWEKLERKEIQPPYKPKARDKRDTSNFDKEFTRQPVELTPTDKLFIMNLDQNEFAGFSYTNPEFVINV
T5 sequence (Q05655 whole entry): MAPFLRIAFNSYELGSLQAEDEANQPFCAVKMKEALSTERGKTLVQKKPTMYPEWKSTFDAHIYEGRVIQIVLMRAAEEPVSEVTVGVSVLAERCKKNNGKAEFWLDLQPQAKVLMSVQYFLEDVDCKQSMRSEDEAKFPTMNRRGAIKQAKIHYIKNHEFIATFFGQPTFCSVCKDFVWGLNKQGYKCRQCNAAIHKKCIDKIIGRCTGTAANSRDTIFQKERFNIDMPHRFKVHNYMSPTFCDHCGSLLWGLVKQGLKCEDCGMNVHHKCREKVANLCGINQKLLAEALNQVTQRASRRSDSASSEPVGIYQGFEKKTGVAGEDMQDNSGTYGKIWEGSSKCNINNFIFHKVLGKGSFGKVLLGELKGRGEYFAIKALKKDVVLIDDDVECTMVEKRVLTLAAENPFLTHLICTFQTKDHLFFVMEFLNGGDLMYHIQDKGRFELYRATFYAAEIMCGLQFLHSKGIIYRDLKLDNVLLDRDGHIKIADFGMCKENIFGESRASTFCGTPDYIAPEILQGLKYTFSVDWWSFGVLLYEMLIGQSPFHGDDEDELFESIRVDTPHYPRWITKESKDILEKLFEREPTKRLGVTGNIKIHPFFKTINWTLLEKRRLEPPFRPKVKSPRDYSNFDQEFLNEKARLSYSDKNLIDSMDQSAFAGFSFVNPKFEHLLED

In general, IC50 refers to the concentration that gives 50% inhibition. As for `CC(C)N1CCN(c2nc(C3=C(c4c[nH]c5ccccc45)C(=O)NC3=O)c3ccccc3n2)CC1` [Example 85], the IC50 on Human recombinant PKCη stood at 50 ± 9 nM.
Turning to `Cc1cccc2c(C3=C(c4nc(N5CCN(C)CC5)nc5ccccc45)C(=O)NC3=O)c[nH]c12` [Example 139], on Human recombinant PKCε, the IC50 stood at 20 ± 7 nM.
For `Cn1cc(C2=C(c3nc(N4CCNC5(CC5)C4)nc4ccccc34)C(=O)NC2=O)c2ccccc21` [Example 100], the graft survival entry in experiment [1] is listed as “significantly increases the graft survival”. For the same compound, the concentration for half-maximal inhibition (IC50) at Human recombinant PKCα is 39 ± 15 nM.
Take `CN1CCN(c2cc(C3=C(c4c[nH]c5ccccc45)C(=O)NC3=O)c3ccccc3n2)CC1` [Example 163, 3-(1.H.-indol-3-yl)-4-[2-(4-methyl-piperazin-1-yl)-quinolin-4-yl]-pyrrole-2,5-dione]: the IC50 at Human recombinant PKCβ1 is 8 ± 2 nM.
Turning to `CN1CCN(c2cc3ccccc3c(C3=C(c4c[nH]c5ccccc45)C(=O)NC3=O)n2)CC1` [Example 181, 3-(1.H.-Indol-3-yl)-4-[3-(4-methyl-piperazin-1-yl)-isoquinolin-1-yl]-pyrrole-2,5-dione], the IC50 on Human recombinant PKCδ stood at 18 ± 8 nM.
With `CN1CCN(c2nc(C3=C(c4c[nH]c5ccccc45)C(=O)NC3=O)c3ccccc3n2)CC1` [Example 56, 3-(1.H.-indol-3-yl)-4-[2-(4-methyl-piperazin-1-yl)-quinazolin-4-yl]-pyrrole-2,5-dione], the IC50 in [2] was 42 ± 12 nM; at Human recombinant PKCθ, < 10 nM; in [3] it was 168 ± 20 nM.
